According to patent USRE47689E1, “Compounds for treating spinal muscular atrophy” (PTC Therapeutics, Inc., priority 2011, dated 2019):

How the values were obtained:
[1] = test system: SMN2 minigene (full length SMN2 minigene mRNA containing SMN2 exon 7); assay: SMN2 minigene mRNA splicing RT-qPCR assay in cultured cells; assay type: cell-based, human; conditions: Homo sapiens, HEK293-H; HEK293H cells stably transfected with SMN2-A minigene; 24 hours; 7-point concentration curve; 1.5-fold relative to vehicle-treated cells; read-out: EC1.5x for production of full length SMN2 mRNA
In short: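 HEK293H cells stably carrying the SMN2-A minigene treated 24 h at 37° C with compound (DMSO, 200× stock), then lysed. Multiplex RT-qPCR (SMN primers 0.4 μM final; 40 cycles) measures full-length exon 7-containing minigene mRNA, normalized to GAPDH and to vehicle; EC1.5x derived and binned by stars.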

Smn protein = Smn protein assay in cultured cells (SMN HTRF); assay type: cell-based, human; conditions: 48 hours; for EC1.5x (concentration giving 1.5-fold Smn protein increase): SMA Type 1 patient fibroblast cells (GM03813), 7-point concentration curve, SMN HTRF, concentration producing 1.5 times Smn protein vs DMSO vehicle control, read-out: EC1.5x for Smn protein expression; for maximum fold (Fold) increase of Smn protein: SMA patient fibroblast cells, 7-point concentration data, fold increase relative to vehicle control (SMN HTRF)
In short: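 Lysates in RIPA with protease inhibitors are incubated overnight at room temperature with HTRF anti-SMN antibodies. EC1.5x is derived from fold increase in ΔF over vehicle.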

Row | Compound | EC (1.5-fold) [1] | EC1.5x (concentration giving 1.5-fold Smn protein increase) (Smn protein) | maximum fold (Fold) increase of Smn protein (Smn protein) | melting point
1 | Cc1cn2cc(-c3cc4ccc(C5CCN(CCCF)CC5)cc4oc3=O)nc2cn1 [Compound 917, 7-[1-(3-fluoropropyl)piperidin-4-yl]-3-(6-methylimidazo[1,2-a]pyrazin-2-yl)-2H-chromen-2-one] | < 0.1 µM | < 300 nM | ***** (fold increase >1.65) | 224 to 234 °C
2 | Cc1cn2cc(-c3cc4ccc(CCCNCc5ccsc5)cc4oc3=O)nc2c(C)n1 [Compound 934, 3-(6,8-dimethylimidazo[1,2-a]pyrazin-2-yl)-7-{3-[(thiophen-3-ylmethyl)amino]propyl}-2H-chromen-2-one] | < 0.1 µM | – | ** (fold increase between >1.2 and ≤1.35) | 149 to 152 °C
3 | COc1ccc(-c2cc3c(F)cc(N4CCCN(C)CC4)cc3oc2=O)cc1OC [Compound 406, 3-(3,4-dimethoxyphenyl)-5-fluoro-7-(4-methyl-1,4-diazepan-1-yl)-2H-chromen-2-one] | 3 to 30 µM | – | * (maximum fold increase of ≤1.2) | 134 to 140 °C
4 | COc1cc(OC)cc(-c2cc3ccc(N4CCCN(C)CC4)cc3oc2=O)c1 [Compound 411, 3-(3,5-dimethoxyphenyl)-7-(4-methyl-1,4-diazepan-1-yl)-2H-chromen-2-one] | 3 to 30 µM | – | * (maximum fold increase of ≤1.2) | 151 to 153 °C
5 | CCN1CC[C@@H](Nc2ccc3cc(-c4cn5cc(C)nc(C)c5n4)c(=O)oc3c2)C1 [Compound 731, 3-(6,8-dimethylimidazo[1,2-a]pyrazin-2-yl)-7-{[(3R)-1-ethylpyrrolidin-3-yl]amino}-2H-chromen-2-one] | < 0.1 µM | – | *** (fold increase between >1.35 and ≤1.5) | 209 to 215 °C
6 | Cc1ccc2nc(-c3cc4ccc(N5CCCC(N(C)C)C5)cc4oc3=O)cn2c1 (centres unmarked) [Compound 200, 7-[3-(dimethylamino)piperidin-1-yl]-3-(6-methylimidazo[1,2-a]pyridin-2-yl)-2H-chromen-2-one] | 3 to 30 µM | – | * (maximum fold increase of ≤1.2) | 167 to 169 °C
7 | Cc1nn2cc(-c3cc4ccc(N5CCCNCC5)cc4oc3=O)nc2s1 [Compound 450, 7-(1,4-diazepan-1-yl)-3-(2-methylimidazo[2,1-b][1,3,4]thiadiazol-6-yl)-2H-chromen-2-one] | 1 to 3 µM | 1000 to 3000 nM | *** (fold increase between >1.35 and ≤1.5) | 215 to 218 °C
8 | O=c1oc2cc(O[C@@H]3CCNC3)ccc2cc1-c1nc2ccccc2s1 [Compound 55, 3-(1,3-benzothiazol-2-yl)-7-[(3R)-pyrrolidin-3-yloxy]-2H-chromen-2-one] | 1 to 3 µM | – | * (maximum fold increase of ≤1.2) | 205 to 211 °C
9 | Cc1cc2cc(-c3cc4ccc(N5CCCN(C)CC5)cc4oc3=O)oc2c(C)n1 [Compound 775, 3-(5,7-dimethylfuro[2,3-c]pyridin-2-yl)-7-(4-methyl-1,4-diazepan-1-yl)-2H-chromen-2-one] | < 0.1 µM | < 300 nM | **** (fold increase between >1.5 and ≤1.65) | 243 to 245 °C
10 | CN1CCN(c2ccc3cc(-c4nc(C(F)(F)F)cs4)c(=O)oc3c2)CC1.O=C(O)C(F)(F)F [Compound 53, 7-(4-methylpiperazin-1-yl)-3-[4-(trifluoromethyl)-1,3-thiazol-2-yl]-2H-chromen-2-one trifluoroacetate] | 3 to 30 µM | – | ** (fold increase between >1.2 and ≤1.35) | 260 to 270 °C
11 | Cc1ccc2nc(-c3cc4ccc(O[C@@H]5CCNC5)cc4oc3=O)cn2c1.Cl.Cl [Compound 326, 3-(6-methylimidazo[1,2-a]pyridin-2-yl)-7-[(3R)-pyrrolidin-3-yloxy]-2H-chromen-2-one hydrochloride (1:2)] | 0.1 to 0.3 µM | – | ** (fold increase between >1.2 and ≤1.35) | 261 to 265 °C
12 | CCN1CCN(c2ccc3cc(-c4cn5ccsc5n4)c(=O)oc3c2)CC1 [Compound 201, 7-(4-ethylpiperazin-1-yl)-3-(imidazo[2,1-b][1,3]thiazol-6-yl)-2H-chromen-2-one] | 0.3 to 1 µM | – | ** (fold increase between >1.2 and ≤1.35) | 202 to 205 °C
13 | CSc1cccc(-c2cc3ccc(N4CCNCC4)cc3oc2=O)n1 [Cpd 445, 3-[6-(methylsulfanyl)pyridin-2-yl]-7-(piperazin-1-yl)-2H-chromen-2-one] | 3 to 30 µM | – | * (maximum fold increase of ≤1.2) | 180 to 183 °C
14 | Cc1cn2cc(-c3cc4ccc(N5CCN[C@H](C)C5)cc4oc3=O)nc2s1 [Compound 231, 3-(2-methylimidazo[2,1-b][1,3]thiazol-6-yl)-7-[(3R)-3-methylpiperazin-1-yl]-2H-chromen-2-one] | 0.3 to 1 µM | 3000 to 10000 nM | ** (fold increase between >1.2 and ≤1.35) | 178 to 181 °C
15 | Cc1ccn2cc(-c3cc4ccc(N5CCCN(C)CC5)cc4oc3=O)nc2n1 [Compound 227, 7-(4-methyl-1,4-diazepan-1-yl)-3-(7-methylimidazo[1,2-a]pyrimidin-2-yl)-2H-chromen-2-one] | 0.1 to 0.3 µM | 3000 to 10000 nM | *** (fold increase between >1.35 and ≤1.5) | 232 to 236 °C
16 | Cc1cn2cc(-c3cc4ccc(N5CCNCC5)cc4oc3=O)cc2c(C)n1 [Compound 670, 3-(1,3-dimethylpyrrolo[1,2-a]pyrazin-7-yl)-7-(piperazin-1-yl)-2H-chromen-2-one] | < 0.1 µM | < 300 nM | ***** (fold increase >1.65) | 186 to 189 °C
17 | CCN1CCN(c2ccc3cc(-c4cn5cccnc5n4)c(=O)oc3c2)CC1 [Compound 108, 7-(4-ethylpiperazin-1-yl)-3-(imidazo[1,2-a]pyrimidin-2-yl)-2H-chromen-2-one] | 1 to 3 µM | 300 to 1000 nM | **** (fold increase between >1.5 and ≤1.65) | 300 to 302 °C
18 | Cl.Cl.O=c1oc2cc(O[C@@H]3CCNC3)ccc2cc1-c1cn2ccsc2n1 [Compound 324, 3-(imidazo[2,1-b][1,3]thiazol-6-yl)-7-[(3R)-pyrrolidin-3-yloxy]-2H-chromen-2-one hydrochloride (1:2)] | 0.3 to 1 µM | – | *** (fold increase between >1.35 and ≤1.5) | 252 to 256 °C
19 | Cc1cn2cc(-c3cc4ccc(N5C[C@H]6CNC[C@H]6C5)cc4oc3=O)nc2c(C)n1 [Compound 686, 3-(6,8-dimethylimidazo[1,2-a]pyrazin-2-yl)-7-[(3aR,6aS)-hexahydropyrrolo[3,4-c]pyrrol-2(1H)-yl]-2H-chromen-2-one] | < 0.1 µM | < 300 nM | ***** (fold increase >1.65) | 250 to 260 °C
